Measured values: patent US20080287430A1, “Furan Compounds Useful As Ep1 Receptor Antagonists” (priority 2005, published 2008)
Counter-ions that a name gives are not always drawn.

Target: T1, human EP1 receptor (Homo sapiens, UniProt P34995)
T1 construct: expressed in transfected cells; host or cells: CHO-K1
T1 sequence (P34995 1-402): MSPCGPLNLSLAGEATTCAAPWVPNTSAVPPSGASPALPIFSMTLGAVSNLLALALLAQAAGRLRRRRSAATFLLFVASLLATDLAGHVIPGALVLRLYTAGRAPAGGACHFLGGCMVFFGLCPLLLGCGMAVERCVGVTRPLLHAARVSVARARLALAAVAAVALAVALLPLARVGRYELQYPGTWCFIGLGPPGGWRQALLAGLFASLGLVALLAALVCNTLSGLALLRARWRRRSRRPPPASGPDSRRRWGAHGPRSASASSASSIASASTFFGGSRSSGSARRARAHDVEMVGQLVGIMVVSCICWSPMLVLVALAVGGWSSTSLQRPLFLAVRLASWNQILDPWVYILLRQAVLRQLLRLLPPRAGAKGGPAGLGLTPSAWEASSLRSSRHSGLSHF
Assay: human EP1 calcium mobilisation assay
Type: cell-based
Settings: human EP1, PGE2-induced calcium mobilisation in CHO-K1 cells; free bases or sodium salts; averages of a number of experiments; read-out: functional pKi value (converted)
Outline: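 CHO-K1 cells stably expressing human EP1, loaded with Fluo-4 after 24 h at 37° C; compounds added before PGE2 challenge. Inhibition of PGE2-induced [Ca2+]i rise read by FLIPR fluorescence; pIC50 from curve fitting of half-maximal inhibition.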

Compound	Ki
CC(C)COc1ccc(Cl)cc1Cc1ccc(-c2nc3ncccc3[nH]2)o1 [Example 116, 2-[5-({5-Chloro-2-[(2-methylpropyl)oxy]phenyl}-methyl)-2-furanyl]-1H-imidazo[4,5-b]pyridine]	< 1000 nM
CC(C)COc1ccc(Cl)cc1Cc1ccc(-c2nc3cnc4ccccc4c3[nH]2)o1 [Example 118, 2-[5-({5-Chloro-2-[(2-methylpropyl)oxy]phenyl}-methyl)-2-furanyl]-1H-imidazo[4,5-c]quinoline]	< 1000 nM
CC(C)COc1ccc(Cl)cc1Cc1ccc(-c2nc3cc4cn[nH]c4cc3[nH]2)o1 [Example 119, 6-[5-({5-Chloro-2-[(2-methylpropyl)oxy]phenyl}-methyl)-2-furanyl]-1,5-dihydroimidazo[4,5-f]indazole]	< 1000 nM
Clc1ccc(OCc2ccccc2)c(Cc2ccc(-c3nc4cnccc4[nH]3)o2)c1 [Example 120, 2-[5-({5-Chloro-2-[(phenylmethyl)oxy]-phenyl}methyl)-2-furanyl]-1H-imidazo[4,5-c]pyridine hydrochloride]	< 1000 nM
Clc1ccc(OCc2ccccc2)c(Cc2ccc(-c3nc4ncccc4[nH]3)o2)c1 [Example 121, 2-[5-({5-Chloro-2-[(phenylmethyl)oxy]-phenyl}methyl)-2-furanyl]-1H-imidazo[4,5-b]pyridine]	< 1000 nM
CC(C)COc1ccc(Cl)cc1Cc1ccc(-c2nc3cc(F)ccc3[nH]2)o1 [Example 122, 2-[5-({5-Chloro-2-[(2-methyipropyl)oxy]phenyl}methyl)-2-furanyl]-5-fluoro-1H-benzimidazole]	< 1000 nM
CC(C)COc1ccc(Cl)cc1Cc1ccc(-c2nc3cc(Cl)ccc3[nH]2)o1 [Example 123, 5-Chloro-2-[5-({5-chloro-2-[(2-methylpropyl)oxy]phenyl}-methyl)-2-furanyl]-1H-benzimidazole]	< 1000 nM
CC(C)COc1ccc(Cl)cc1Cc1ccc(-c2nc3cc(F)c(F)cc3[nH]2)o1 [Example 124, 2-[5-({5-Chloro-2-[(2-methylpropyl)oxy]phenyl}-methyl)-2-furanyl]-5,6-difluoro-1H-benzimidazole]	< 1000 nM
Cc1ccc2[nH]c(-c3ccc(Cc4cc(Cl)ccc4OCC(C)C)o3)nc2c1 [Example 125, 2-[5-({5-Chloro-2-[(2-methylpropyl)oxy]phenyl}-methyl)-2-furanyl]-5-methyl-1H-benzimidazole]	< 1000 nM
CC(C)COc1ccc(Cl)cc1Cc1ccc(-c2nc3cc(C(F)(F)F)ccc3[nH]2)o1 [Example 126, 2-[5-({5-Chloro-2-[(2-methylpropyl)oxy]phenyl}-methyl)-2-furanyl]-5-(trifluoromethyl)-1H-benzimidazole]	< 1000 nM
CC(C)COc1ccc(Cl)cc1Cc1ccc(-c2nc3cc(C(C)(C)C)ccc3[nH]2)o1 [Example 127, 2-[5-({5-Chloro-2-[(2-methylpropyl)oxy]phenyl}-methyl)-2-furanyl]-5-(1,1-dimethylethyl)-1H-benzimidazole]	< 1000 nM
CC(C)COc1ccc(Cl)cc1Cc1ccc(-c2nc3ccc(F)c(F)c3[nH]2)o1 [Example 128, 2-[5-({5-Chloro-2-[(2-methylpropyl)oxy]phenyl}-methyl)-2-furanyl]-4,5-difluoro-1H-benzimidazole]	< 1000 nM
Fc1cc2nc(-c3ccc(Cc4cc(Cl)ccc4OCc4ccccc4)o3)[nH]c2cc1F [Example 129, 2-[5-({5-Chloro-2-[(phenylmethyl)oxy]phenyl}methyl)-2-furanyl]-5,6-difluoro-1H-benzimidazole]	< 1000 nM
Fc1cccc2nc(-c3ccc(Cc4cc(Cl)ccc4OCc4ccccc4)o3)[nH]c12 [Example 131, 2-[5-({5-Chloro-2-[(phenylmethyl)oxy]-phenyl}methyl)-2-furanyl]-4-fluoro-1H-benzimidazole]	< 1000 nM
CC(C)COc1ccc(Cl)cc1Cc1ccc(-c2nc3cccc(CO)c3[nH]2)o1 [Example 134, {2-[5-({5-chloro-2-[(2-methylpropyl)oxy]phenyl}methyl)-2-furanyl]-1H-benzimidazol-4-yl}methanol]	> 1000 nM
CC(C)COc1ccc(Cl)cc1Cc1ccc(-c2nc3cc(Br)cnc3[nH]2)o1 [Example 135, 6-Bromo-2-[5-({5-chloro-2-[(2-methylpropyl)oxy]phenyl}methyl)-2-furanyl]-1H-imidazo[4,5-b]pyridine hydrochloride]	> 1000 nM
C=Cc1cnc2[nH]c(-c3ccc(Cc4cc(Cl)ccc4OCC(C)C)o3)nc2c1 [Example 137, 2-[5-({5-Chloro-2-[(2-methylpropyl)oxy]phenyl}methyl)-2-furanyl]-6-ethenyl-1H-imidazo[4,5-b]pyridine hydrochloride]	< 1000 nM

Now from value to molecule:

Ki	Compound
< 1000 nM	CN(C)Cc1ccc2nc(-c3ccc(Cc4cc(Cl)ccc4OCc4ccccc4)o3)[nH]c2c1 [Example 138, ({2-[5-({5-Chloro-2-[(phenylmethyl)oxy]phenyl}methyl)-2-furanyl]-1H-benzimidazol-5-yl}methyl)dimethylamine dihydrochloride]
< 1000 nM	Clc1ccc(OCc2ccccc2)c(Cc2ccc(-c3nc4ccc(CN5CCOCC5)cc4[nH]3)o2)c1 [Example 139, 2-[5-({5-Chloro-2-[(phenylmethyl)oxy]-phenyl}methyl)-2-furanyl]-5-(4-morpholinylmethyl)-1H-benzimidazoledihydrochloride]
< 1000 nM	Clc1ccc(OCc2ccccc2)c(Cc2ccc(-c3nc4ccc(CN5CCCC5)cc4[nH]3)o2)c1 [Example 140, 2-[5-({5-Chloro-2-[(phenylmethyl)oxy]-phenyl}methyl)-2-furanyl]-5-(1-pyrrolidinylmethyl)-1H-benzimidazoledihydrochloride]
< 1000 nM	Clc1ccc(OCc2ccccc2)c(Cc2ccc(-c3nc4ccc(CN5CCCCC5)cc4[nH]3)o2)c1 [Example 141, 2-[5-({5-Chloro-2-[(phenylmethyl)oxy]-phenyl}methyl)-2-furanyl]-5-(1-piperidinylmethyl)-1H-benzimidazoledihydrochloride]
< 1000 nM	CC(C)COc1ccc(Cl)cc1Cc1ccc(-c2nc3ccc(CN4CCOCC4)cc3[nH]2)o1 [Example 144, 2-[5-({5-Chloro-2-[(2-methylpropyl)oxy]-phenyl}methyl)-2-furanyl]-5-(4-morpholinylmethyl)-1H-benzimidazoledihydrochloride]
< 1000 nM	CCN(CC)Cc1ccc2nc(-c3ccc(Cc4cc(Cl)ccc4OCC(C)C)o3)[nH]c2c1 [Example 150, N-({2-[5-({5-Chloro-2-[(2-methylpropyl)oxy]-phenyl}methyl)-2-furanyl]-1H-benzimidazol-5-yl}methyl)-N-ethylethanaminedihydrochloride]
< 1000 nM	CC(C)COc1ccc(Cl)cc1Cc1ccc(-c2nc3ccc(CN(C)CC4CCOCC4)cc3[nH]2)o1 [Example 152, ({2-[5-({5-Chloro-2-[(2-methylpropyl)oxy]-phenyl}methyl)-2-furanyl]-1H-benzimidazol-5-yl}methyl)methyl(tetrahydro-2H-pyran-4-ylmethyl)aminedihydrochloride]
< 1000 nM	CC(C)COc1ccc(Cl)cc1Cc1ccc(-c2nc3ccc(CN(C)CC(C)(C)C)cc3[nH]2)o1 [Example 153, N-({2-[5-({5-Chloro-2-[(2-methylpropyl)oxy]-phenyl}methyl)-2-furanyl]-1H-benzimidazol-5-yl}methyl)-N,2,2-trimethyl-1-propanaminedihydrochloride]
< 1000 nM	CCNCc1ccc2nc(-c3ccc(Cc4cc(Cl)ccc4OCC(C)C)o3)[nH]c2c1 [Example 154, N-({2-[5-({5-Chloro-2-[(2-methylpropyl)oxy]-phenyl}methyl)-2-furanyl]-1H-benzimidazol-5-yl}methyl)ethanaminedihydrochloride]
< 1000 nM	CC(C)COc1ccc(Cl)cc1Cc1ccc(-c2nc3ccc(CNC(C)C)cc3[nH]2)o1 [Example 155, N-({2-[5-({5-Chloro-2-[(2-methylpropyl)oxy]-phenyl}methyl)-2-furanyl]-1H-benzimidazol-5-yl}methyl)-2-propanaminedihydrochloride]
< 1000 nM	CN1CCN(Cc2cccc3nc(-c4ccc(Cc5cc(Cl)ccc5OCc5ccccc5)o4)[nH]c23)CC1 [Example 160, 2-[5-({5-Chloro-2-[(phenylmethyl)oxy]-phenyl}methyl)-2-furanyl]-4-[(4-methyl-1-piperazinyl)methyl]-1H-benzimidazolehydrochloride]
< 1000 nM	CC(C)COc1ccc(Cl)cc1Cc1ccc(-c2nc3cc(CCN4CCCC4)ccc3[nH]2)o1 [Example 161, 2-[5-({5-Chloro-2-[(2-methylpropyl)oxy]-phenyl}methyl)-2-furanyl]-5-[2-(1-pyrrolidinyl)ethyl]-1H-benzimidazoledihydrochloride]
< 1000 nM	CC(C)COc1ccc(Cl)cc1Cc1ccc(-c2nc3cc(CCN(C)C)ccc3[nH]2)o1 [Example 163, (2-{2-[5-({5-Chloro-2-[(2-methylpropyl)oxy]-phenyl}methyl)-2-furanyl]-1H-benzimidazol-5-yl}ethyl)dimethylaminedihydrochloride]
< 1000 nM	CC(C)COc1ccc(Cl)cc1Cc1ccc(-c2nc3cc(CN(C)C)cnc3[nH]2)o1 [Example 164, ({2-[5-({5-Chloro-2-[(2-methylpropyl)oxy]-phenyl}methyl)-2-furanyl]-1H-imidazo[4,5-b]pyridin-6-yl}methyl)dimethyl-amine dihydrochloride]
